Test [1] concerns the target T1, D(2) dopamine receptor (Homo sapiens, UniProt P14416). As to the kind of experiment: Antagonist activity at human D2R expressed in CHOK1 cells assessed as inhibition of dopamine-induced beta-arrestin recruitment measured after 120 mins by beta-galactosidase based PathHunter assay relative to sulpiride. Format: cell-based. The following applies: 2 h, read-out: Imax.

The target in test [2] is T1, D(2) dopamine receptor. As to the kind of experiment: Agonist activity at human D2R expressed in CHOK1 cells assessed as induction of beta-arrestin recruitment measured after 90 mins by beta-galactosidase based PathHunter assay. Format: cell-based. The note with it: for pEC50: read-out: EC50. For orientation: Arrestin recruitment assays detect the binding of arrestin to an activated receptor.

In test [3] the target is T1, D(2) dopamine receptor. As to the kind of experiment: Antagonist activity at human D2R expressed in CHOK1 cells assessed as inhibition of dopamine-induced beta-arrestin recruitment measured after 120 mins by beta-galactosidase based PathHunter assay. The test is classed as cell-based. The following applies: for pIC50: read-out: IC50.
The target of test [4] is T1, D(2) dopamine receptor.
Test [5] addresses T2, D(3) dopamine receptor (Homo sapiens, UniProt P35462). As to the kind of experiment: Agonist activity at human D3R expressed in CHOK1 cells assessed as induction of beta-arrestin recruitment measured after 90 mins by beta-galactosidase based PathHunter assay. The note with it: for pEC50: read-out: EC50. The test is classed as cell-based.
The target of test [6] is T2, D(3) dopamine receptor. As to the kind of experiment: biochemical.
In test [7] the target is 5-hydroxytryptamine receptor 2B (Homo sapiens, UniProt P41595). As to the kind of experiment: Antagonist activity at recombinant human 5-HT2B receptor expressed in CHOK1 cells assessed as inhibition of serotonin-induced increase in inositol1-phosphate accumulation measured after 30 mins by HTRF assay. The test is classed as functional, cell-based. (TR-FRET usually uses a lanthanide donor and a delayed reading to cut background.)

pEC50, pIC50: −log10 of the molar value.

By pIC50 is commonly meant −log10 of the IC50, conventionally taken in molar units. Usually pEC50 stands for the EC50 on a negative log10 scale, so that one unit is a factor of ten.

T2 sequence (P35462 whole entry): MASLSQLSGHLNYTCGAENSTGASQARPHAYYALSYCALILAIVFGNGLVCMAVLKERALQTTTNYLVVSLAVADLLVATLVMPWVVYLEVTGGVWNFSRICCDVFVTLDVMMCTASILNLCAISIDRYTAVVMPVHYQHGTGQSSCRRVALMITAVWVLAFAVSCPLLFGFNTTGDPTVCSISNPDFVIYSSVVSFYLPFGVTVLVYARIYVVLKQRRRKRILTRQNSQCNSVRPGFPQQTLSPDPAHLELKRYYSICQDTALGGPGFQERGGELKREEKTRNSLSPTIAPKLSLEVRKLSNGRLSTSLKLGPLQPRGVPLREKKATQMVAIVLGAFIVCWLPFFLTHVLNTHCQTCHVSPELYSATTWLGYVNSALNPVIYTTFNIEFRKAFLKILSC
T1 sequence (P14416 whole entry): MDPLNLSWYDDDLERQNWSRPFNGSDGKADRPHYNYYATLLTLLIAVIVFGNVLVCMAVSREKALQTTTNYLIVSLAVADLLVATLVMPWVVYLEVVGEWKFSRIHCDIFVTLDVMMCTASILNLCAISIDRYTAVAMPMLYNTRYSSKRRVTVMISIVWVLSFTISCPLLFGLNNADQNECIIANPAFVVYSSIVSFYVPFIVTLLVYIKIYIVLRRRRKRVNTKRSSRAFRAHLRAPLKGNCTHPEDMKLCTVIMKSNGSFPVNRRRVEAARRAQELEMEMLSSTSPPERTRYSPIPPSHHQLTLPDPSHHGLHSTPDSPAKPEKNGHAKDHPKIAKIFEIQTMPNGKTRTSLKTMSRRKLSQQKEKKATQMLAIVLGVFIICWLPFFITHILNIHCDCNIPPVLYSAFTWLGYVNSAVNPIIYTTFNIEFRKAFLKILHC
Chain of 5-hydroxytryptamine receptor 2B (P41595 whole entry): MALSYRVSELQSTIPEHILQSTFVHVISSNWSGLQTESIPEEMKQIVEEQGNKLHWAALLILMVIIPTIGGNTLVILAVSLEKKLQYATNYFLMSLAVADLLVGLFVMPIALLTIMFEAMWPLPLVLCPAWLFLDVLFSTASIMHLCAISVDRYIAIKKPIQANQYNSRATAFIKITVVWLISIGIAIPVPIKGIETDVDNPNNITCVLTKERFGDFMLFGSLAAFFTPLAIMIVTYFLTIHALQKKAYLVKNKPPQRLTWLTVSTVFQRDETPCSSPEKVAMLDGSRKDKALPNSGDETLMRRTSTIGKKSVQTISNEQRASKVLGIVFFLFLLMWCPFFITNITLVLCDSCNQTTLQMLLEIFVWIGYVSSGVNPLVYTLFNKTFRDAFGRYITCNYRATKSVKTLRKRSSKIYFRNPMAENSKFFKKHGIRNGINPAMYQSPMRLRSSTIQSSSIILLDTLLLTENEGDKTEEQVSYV

As to `COc1ccc(OCCN2CCN(C(=O)c3cc4ccccc4o3)CC2)cc1`, the Emax on D(2) dopamine receptor [1] was 111%. On D(2) dopamine receptor [2], the EC50 result was “Not Active”. Further, the pIC50 on D(2) dopamine receptor [3] was 5.11.

Regarding `COc1ccc(OCCN2CCN(C(=O)c3ccc(OC)cc3)CC2)cc1`, the Emax on D(2) dopamine receptor [1] is 88%. Also, the negative-log IC50 (pIC50) against D(2) dopamine receptor [4] was less than 4.00; against D(3) dopamine receptor [6], 4.00 to 5.00. The negative-log EC50 (pEC50) at D(3) dopamine receptor [5] is 6.15. Moreover, the EC50 entry at D(2) dopamine receptor [2] is “Not Active”.

With `COc1ccc(OCCN2CCN(C(=O)c3cc4ccccc4n3C)CC2)cc1`, on D(2) dopamine receptor [1], the Emax stood at 105%. Besides, the pEC50 on D(3) dopamine receptor [5] is 6.51. Besides, at D(2) dopamine receptor [2], the EC50 entry was “Not Active”. For the same compound, the negative-log IC50 (pIC50) on D(2) dopamine receptor [3] was 5.02.

On to `COc1ccc(OCCN2CCN(C(=O)c3ccc(Cl)cc3)CC2)cc1`, for which the Emax at D(2) dopamine receptor [1] stood at 107%. For the same compound, the EC50 result on D(3) dopamine receptor [5] and at D(2) dopamine receptor [2] was “Not Active” in each case. For the same compound, the pIC50 at D(2) dopamine receptor [3] is 5.05.

With `O=C(c1cc2ccccc2[nH]1)N1CCN(CCOc2ccccc2)CC1`, at D(2) dopamine receptor [1], the Emax was determined as 37%. Moreover, the pEC50 at D(3) dopamine receptor [5] is 8.04; on D(2) dopamine receptor [2] it was 5.74. The pIC50 at D(2) dopamine receptor [3] was 6.27.

Regarding `CC(C)(C)c1ccc(OCCN2CCN(C(=O)c3cc4ccccc4[nH]3)CC2)cc1`, the EC50 result on D(3) dopamine receptor [5] and on D(2) dopamine receptor [2] was “Not Active” throughout. In addition, at D(2) dopamine receptor [3], the negative-log IC50 (pIC50) was less than 4.00.

As to `COc1ccc(C(=O)N2CCN(CCOc3cccnc3)CC2)c(C)c1`, the negative logarithm of the EC50 (pEC50) is 6.94 at D(3) dopamine receptor [5] and 5.34 on D(2) dopamine receptor [2]. Further, the pIC50 on D(2) dopamine receptor [3] was less than 4.00.

In the case of `COc1ccc(OCCN2CCN(C(=O)c3ccncc3)CC2)cc1`, the pEC50 at D(3) dopamine receptor [5] was 4.66. The EC50 entry at D(2) dopamine receptor [2] was “Not Active”. In addition, the IC50 entry on D(2) dopamine receptor [3] is given as “Not Active”.

On to `COc1ccc(C(=O)N2CCN(CCOc3cccnc3)CC2)cc1`, for which the negative logarithm of the EC50 (pEC50) is 7.77 on D(3) dopamine receptor [5] and 5.54 on D(2) dopamine receptor [2]. In addition, the pIC50 at D(2) dopamine receptor [3] is less than 4.00.

For `O=C(c1cc2ccccc2[nH]1)N1CCN(CCOc2ccc(F)cc2)CC1`, the Emax at D(2) dopamine receptor [1] was found to be 72%. Besides, the figures for the pEC50 at D(3) dopamine receptor [5] and at D(2) dopamine receptor [2] were 6.90 and less than 4.30, respectively. In addition, the pIC50 on D(2) dopamine receptor [3] is 5.01.

Turning to `COc1cccc(OCCN2CCN(C(=O)c3cc4cnccc4[nH]3)CC2)c1`, on D(2) dopamine receptor [1], the Emax came out at 30%. The negative logarithm of the EC50 (pEC50) is 6.55 at D(3) dopamine receptor [5] and 6.08 on D(2) dopamine receptor [2]. Also, on D(2) dopamine receptor [3], the negative-log IC50 (pIC50) is 5.13.

For `COc1ccc(C(=O)N2CCN(CCOc3ccc(Cl)cc3)CC2)cc1`, the Emax at D(2) dopamine receptor [1] was found to be 101%. The EC50 entry at D(2) dopamine receptor [2] is “Not Active”. Besides, at D(2) dopamine receptor [3], the pIC50 was less than 5.00.

On to `Cn1ccc2cc3c(cc21)CCN3C(=O)Nc1cccnc1`, for which the pEC50 in test [7] was 7.89.

With `COc1ccc(OCCN2CCN(C(=O)c3ccccc3OC)CC2)cc1`, the pEC50 on D(3) dopamine receptor [5] was 5.60. Moreover, the EC50 result at D(2) dopamine receptor [2] is on record as “Not Active”. Also, the negative-log IC50 (pIC50) on D(2) dopamine receptor [3] was less than 4.00.

With `O=C(c1cc2ccccc2o1)N1CCN(CCOc2cccnc2)CC1`, the values for the pEC50 at D(3) dopamine receptor [5] and at D(2) dopamine receptor [2] were 7.38 and 5.77, respectively. Also, the IC50 entry at D(2) dopamine receptor [3] is listed as “Not Active”.

Regarding `COc1ccc(C(=O)N2CCN(CCOc3ccc(OC(F)(F)F)cc3)CC2)cc1`, the EC50 entry at D(3) dopamine receptor [5] and on D(2) dopamine receptor [2] was “Not Active” in each case. In addition, on D(2) dopamine receptor [3], the pIC50 is less than 4.30.

For `COc1ccc(OCCN2CCN(C(=O)c3ccc(OC)cn3)CC2)cc1`, the values for the pEC50 on D(3) dopamine receptor [5] and at D(2) dopamine receptor [2] were 5.68 and less than 4.30, respectively. Further, on D(2) dopamine receptor [3], the pIC50 was less than 4.00.

For `COc1ccc(C(=O)N2CCN(CCOc3ccc4c(c3)OCO4)CC2)cc1`, the Emax on D(2) dopamine receptor [1] came to 87%. Also, at D(3) dopamine receptor [5], the pEC50 was 6.51. The EC50 result on D(2) dopamine receptor [2] is “Not Active”. Besides, on D(2) dopamine receptor [3], the pIC50 is less than 5.00.

Turning to `O=C(c1cc2ccccc2[nH]1)N1CCN(CCOc2ccc(OC(F)(F)F)cc2)CC1`, the pEC50 is 5.42 at D(3) dopamine receptor [5] and less than 4.00 on D(2) dopamine receptor [2]. On D(2) dopamine receptor [3], the pIC50 was less than 4.00.

`Cc1ccc(OCCN2CCN(C(=O)c3cc4ccccc4[nH]3)CC2)cc1C`: the Emax on D(2) dopamine receptor [1] came to 88%. Besides, the pEC50 at D(3) dopamine receptor [5] is 6.21. Moreover, the EC50 result on D(2) dopamine receptor [2] was “Not Active”. For the same compound, the pIC50 on D(2) dopamine receptor [3] was 4.89.

Take `COc1ccc(SCCN2CCN(C(=O)c3cc4ccccc4[nH]3)CC2)cc1`: the EC50 result at D(3) dopamine receptor [5] and on D(2) dopamine receptor [2] was “Not Active” each time. Moreover, the pIC50 on D(2) dopamine receptor [3] was less than 4.00.

Regarding `Cc1ccc2[nH]c(C(=O)N3CCN(CCOc4cccnc4)CC3)cc2c1`, the negative-log EC50 (pEC50) at D(3) dopamine receptor [5] is 7.89; on D(2) dopamine receptor [2], 5.89. Also, the IC50 entry on D(2) dopamine receptor [3] is “Not Active”.

For `COc1ccc(OCCN2CCN(S(=O)(=O)c3ccc(OC)cc3)CC2)cc1`, the EC50 result on D(3) dopamine receptor [5] is recorded as “Not Active”. Besides, the pEC50 on D(2) dopamine receptor [2] was less than 4.00. Moreover, the IC50 entry on D(2) dopamine receptor [3] is “Not Active”.

For `O=C(c1cc2ccccc2[nH]1)N1CCN(CCOc2ccncc2)CC1`, the pEC50 at D(3) dopamine receptor [5] was 6.33. On D(2) dopamine receptor [2], the EC50 entry is “Not Active”. In addition, the pIC50 on D(2) dopamine receptor [3] is less than 4.00.

In the case of `COc1ccc(OCCC2CCN(C(=O)c3ccc(OC)cc3)CC2)cc1`, the EC50 entry at D(3) dopamine receptor [5] and on D(2) dopamine receptor [2] was “Not Active” each time. Besides, at D(2) dopamine receptor [3], the IC50 result is “Not Active”.

`O=C(c1cc2ccccc2[nH]1)N1CCN(CCOc2ccccn2)CC1`: on D(3) dopamine receptor [5], the negative-log EC50 (pEC50) is 5.46. The EC50 entry at D(2) dopamine receptor [2] is “Not Active”. The pIC50 at D(2) dopamine receptor [3] was less than 4.00.

As to `COc1ccc(OCCN2CCN(C(C)=O)CC2)cc1`, at D(3) dopamine receptor [5], the negative logarithm of the EC50 (pEC50) is 5.01. In addition, the EC50 entry at D(2) dopamine receptor [2] was “Not Active”. Moreover, the IC50 entry at D(2) dopamine receptor [3] is “Not Active”.

On to `COc1ccc(OCCN2CCN(CC(=O)c3cc4ccccc4[nH]3)CC2)cc1`, for which the EC50 entry at D(3) dopamine receptor [5] and at D(2) dopamine receptor [2] was “Not Active” each time. Further, the IC50 entry at D(2) dopamine receptor [3] is reported as “Not Active”.

With `COc1ccc(OC(C)CN2CCN(C(=O)c3ccc(OC)cc3)CC2)cc1` (stereo unspecified), the Emax at D(2) dopamine receptor [1] was determined as 89%. Besides, the EC50 entry at D(2) dopamine receptor [2] was “Not Active”. The negative logarithm of the IC50 (pIC50) at D(2) dopamine receptor [3] was 4.74.

On to `COc1ccc(OCCN2CCN(c3ccc(OC)cc3)CC2)cc1`, for which the EC50 entry at D(3) dopamine receptor [5] and on D(2) dopamine receptor [2] was “Not Active” each time. Besides, the pIC50 on D(2) dopamine receptor [3] is less than 4.30.

For the compound `COc1ccc(OCCN2CCN(C(=O)c3cc4ccc(C)cc4[nH]3)CC2)cc1`, the pEC50 on D(3) dopamine receptor [5] is 6.89; at D(2) dopamine receptor [2] it was 5.96. Further, the IC50 result on D(2) dopamine receptor [3] was “Not Active”.

For the compound `Cn1c(C(=O)N2CCN(CCOc3cccnc3)CC2)cc2ccccc21`, the negative logarithm of the EC50 (pEC50) was 7.42 at D(3) dopamine receptor [5] and 5.21 at D(2) dopamine receptor [2]. The IC50 entry on D(2) dopamine receptor [3] was “Not Active”.

In the case of `O=C(c1ccc[nH]1)N1CCN(CCOc2cccnc2)CC1`, the figures for the negative logarithm of the EC50 (pEC50) at D(3) dopamine receptor [5] and at D(2) dopamine receptor [2] were 6.93 and 5.21, respectively. Besides, the negative logarithm of the IC50 (pIC50) on D(2) dopamine receptor [3] was less than 4.00.

Consider `COc1ccc(OCCN2CCN(C(=O)c3cc4cc(C)ccc4[nH]3)CC2)cc1`, for which the pEC50 on D(3) dopamine receptor [5] was 6.21; on D(2) dopamine receptor [2] it was less than 4.30. Further, the negative-log IC50 (pIC50) at D(2) dopamine receptor [3] is less than 4.00.

For the compound `COc1ccc(C(=O)N2CCN(CCOc3cc(OC)cc(OC)c3)CC2)cc1`, the EC50 result on D(3) dopamine receptor [5] and on D(2) dopamine receptor [2] was “Not Active” in each case. Further, at D(2) dopamine receptor [3], the negative-log IC50 (pIC50) is less than 4.30.

Consider `CCc1ccc(C(=O)N2CCN(CCOc3ccc(OC)cc3)CC2)cc1`, for which the Emax on D(2) dopamine receptor [1] worked out at 106%. Further, the pEC50 on D(3) dopamine receptor [5] was 6.28. Besides, the EC50 result on D(2) dopamine receptor [2] was “Not Active”. Further, the negative logarithm of the IC50 (pIC50) on D(2) dopamine receptor [3] was 5.22.
